Calls of active or inactive are those of the source.
Tested on: not listed separately
Test: cells
Assay type: functional, cell-based

Row | Structure (SMILES) | EC50
1 | Cc1cccc(N=C(S)N2CCC(N(C)CC3CCCO3)CC2)c1 (stereo unspecified) | > 350 µM (not active)
2 | Cc1onc(-c2c(Cl)cccc2Cl)c1C(=O)N=C(N)N1CCCC1 | > 350 µM (not active)
3 | CN1CCN(Cc2nc3ccccc3c(=O)n2Cc2nc(-c3ccccc3F)cs2)CC1 | > 350 µM (not active)
4 | CCN(CC)c1ccc(NC(=O)Cn2nnc(-c3cccc(OC)c3OC)n2)c(C)c1 | > 350 µM (not active)
5 | O=C(c1cc2ccccc2o1)N1CCN(Cc2ccc3c(c2)OCO3)CC1 | > 350 µM (not active)
6 | C=CCNC(=O)/C(=C/c1cn(-c2ccccc2)nc1-c1cccc([N+](=O)[O-])c1)NC(=O)c1ccccc1 | > 350 µM (not active)
7 | CCCc1nc2ccccc2c(=O)n1/N=C/c1ccccc1O | > 350 µM (not active)
8 | COc1ccc(C/C(C)=N/NS(=O)(=O)c2ccc(Br)cc2)cc1 | > 350 µM (not active)

Target: T1, Fatty acid synthase (Homo sapiens, UniProt P49327)
T1 sequence (P49327 whole entry, the tested form may be a part): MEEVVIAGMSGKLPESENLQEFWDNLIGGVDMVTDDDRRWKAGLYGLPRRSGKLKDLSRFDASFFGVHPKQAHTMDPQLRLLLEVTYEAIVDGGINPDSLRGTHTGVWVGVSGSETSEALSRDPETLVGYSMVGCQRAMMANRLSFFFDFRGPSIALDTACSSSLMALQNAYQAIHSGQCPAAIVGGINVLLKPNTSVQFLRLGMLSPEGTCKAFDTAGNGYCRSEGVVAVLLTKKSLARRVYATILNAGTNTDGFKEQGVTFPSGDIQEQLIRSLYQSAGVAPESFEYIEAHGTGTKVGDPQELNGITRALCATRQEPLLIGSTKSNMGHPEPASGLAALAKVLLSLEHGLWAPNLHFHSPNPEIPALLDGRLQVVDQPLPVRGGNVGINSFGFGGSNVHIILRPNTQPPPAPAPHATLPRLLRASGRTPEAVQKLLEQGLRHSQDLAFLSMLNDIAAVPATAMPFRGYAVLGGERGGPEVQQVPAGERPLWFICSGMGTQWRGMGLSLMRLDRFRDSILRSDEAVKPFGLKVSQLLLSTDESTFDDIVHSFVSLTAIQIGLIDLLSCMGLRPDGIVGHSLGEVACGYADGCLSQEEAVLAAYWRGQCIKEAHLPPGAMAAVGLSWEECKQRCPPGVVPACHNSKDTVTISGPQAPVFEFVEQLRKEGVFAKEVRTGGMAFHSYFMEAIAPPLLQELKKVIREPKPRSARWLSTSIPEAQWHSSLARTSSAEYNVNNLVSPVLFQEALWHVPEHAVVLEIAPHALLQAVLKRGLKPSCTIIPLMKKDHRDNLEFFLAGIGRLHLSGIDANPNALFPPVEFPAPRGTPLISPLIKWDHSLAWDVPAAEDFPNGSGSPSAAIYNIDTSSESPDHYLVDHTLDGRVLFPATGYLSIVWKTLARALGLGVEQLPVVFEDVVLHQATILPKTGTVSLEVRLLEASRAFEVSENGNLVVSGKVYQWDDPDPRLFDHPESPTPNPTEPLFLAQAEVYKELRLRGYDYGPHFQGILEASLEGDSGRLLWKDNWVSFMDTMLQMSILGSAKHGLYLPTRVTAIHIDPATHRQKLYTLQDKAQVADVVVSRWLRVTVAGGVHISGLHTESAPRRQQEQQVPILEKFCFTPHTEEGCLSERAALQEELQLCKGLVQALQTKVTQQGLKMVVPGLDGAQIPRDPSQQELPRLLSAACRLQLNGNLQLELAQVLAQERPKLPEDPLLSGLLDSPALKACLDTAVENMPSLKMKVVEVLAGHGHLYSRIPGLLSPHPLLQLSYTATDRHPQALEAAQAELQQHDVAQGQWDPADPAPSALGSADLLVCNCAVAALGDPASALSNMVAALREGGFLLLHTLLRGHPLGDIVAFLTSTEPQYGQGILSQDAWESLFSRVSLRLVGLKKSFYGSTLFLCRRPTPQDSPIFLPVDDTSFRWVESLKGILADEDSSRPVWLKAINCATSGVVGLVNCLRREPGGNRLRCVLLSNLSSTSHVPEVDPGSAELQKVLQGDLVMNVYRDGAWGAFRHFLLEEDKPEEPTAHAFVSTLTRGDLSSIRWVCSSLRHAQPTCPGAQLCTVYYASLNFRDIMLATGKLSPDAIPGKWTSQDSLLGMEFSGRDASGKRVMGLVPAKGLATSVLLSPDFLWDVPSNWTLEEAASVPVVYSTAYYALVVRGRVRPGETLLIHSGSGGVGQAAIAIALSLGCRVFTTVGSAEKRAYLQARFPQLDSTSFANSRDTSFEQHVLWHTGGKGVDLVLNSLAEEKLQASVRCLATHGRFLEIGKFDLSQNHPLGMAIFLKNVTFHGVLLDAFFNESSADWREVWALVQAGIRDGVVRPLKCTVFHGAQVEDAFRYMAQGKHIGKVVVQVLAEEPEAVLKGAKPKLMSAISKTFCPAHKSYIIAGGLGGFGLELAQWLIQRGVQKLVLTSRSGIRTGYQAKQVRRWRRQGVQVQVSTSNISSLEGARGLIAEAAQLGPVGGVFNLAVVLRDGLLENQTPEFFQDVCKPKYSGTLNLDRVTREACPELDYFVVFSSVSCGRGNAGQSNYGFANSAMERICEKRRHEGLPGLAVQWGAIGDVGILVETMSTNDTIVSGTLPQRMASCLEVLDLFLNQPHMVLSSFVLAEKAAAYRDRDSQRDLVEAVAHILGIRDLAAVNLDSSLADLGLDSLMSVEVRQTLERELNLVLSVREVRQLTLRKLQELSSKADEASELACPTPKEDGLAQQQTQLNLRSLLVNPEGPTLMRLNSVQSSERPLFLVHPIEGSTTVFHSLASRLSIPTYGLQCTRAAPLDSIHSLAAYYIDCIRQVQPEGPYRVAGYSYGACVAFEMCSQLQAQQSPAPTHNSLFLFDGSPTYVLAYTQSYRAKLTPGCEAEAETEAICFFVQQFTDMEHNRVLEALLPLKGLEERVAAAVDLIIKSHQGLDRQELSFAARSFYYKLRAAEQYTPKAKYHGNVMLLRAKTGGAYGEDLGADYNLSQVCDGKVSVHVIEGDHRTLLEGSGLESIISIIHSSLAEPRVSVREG
Test: FAS thioesterase domain inhibitors, dose response, biochemical, endpoint fluorescence intensity, uHTS hits (AID 624327);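 note: fluorescence from hydrolysis of an O-methyl fluorescein acyl ester substrate by the enzyme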
Assay type: functional

Row | IC50 | Structure (SMILES)
9 | 19.6 µM (active) | COc1ccc([N+](=O)[O-])cc1NC(=O)C1(c2ccccc2)CCOCC1
10 | 9.18 µM (active) | COc1ccc(-c2cc(=O)oc3c(C)c(OCc4nn[nH]n4)ccc23)cc1
11 | 9.14 µM (active) | CC(=O)N1N=C(c2cccc([N+](=O)[O-])c2)OC1c1cccc(Br)c1 (stereo unspecified)
12 | 11.1 µM (active) | COC(=O)c1cc(C(=O)NCc2ccc3c(c2)OCO3)cc([N+](=O)[O-])c1
13 | 15.6 µM (active) | CCn1cc([N+](=O)[O-])c(C(=O)N2N=C(c3ccccc3)CC2c2ccc([N+](=O)[O-])cc2)n1 (stereo unspecified)
14 | 3.58 µM (active) | CC1CCN(C(=O)COC(=O)c2cc([N+](=O)[O-])ccc2N2CCOCC2)CC1
15 | 5.42 µM (active) | COc1ccc(CN(C)C(=O)COC(=O)c2cc([N+](=O)[O-])ccc2N2CCCC2)c(OC)c1OC

Further lines, the compound ahead of its results:

Row | Structure (SMILES) | IC50
16 | CC(NC(=O)C(C(=O)c1cccc([N+](=O)[O-])c1)n1cc(Cl)ccc1=O)c1ccccc1 (stereo unspecified) | 8.63 µM (active)
17 | Cc1cc(=O)oc2cc(OCC(=O)N3CCN(C(C)c4ccccc4)CC3)c(Cl)cc12 (stereo unspecified) | 8.39 µM (active)
18 | CN(c1ccccc1)S(=O)(=O)c1cccc(NC(=O)CCNC(=O)c2ccc([N+](=O)[O-])cc2)c1 | 7.63 µM (active)
19 | CCOC(=O)[C@@H]1[C@H]2COc3cc(OC)ccc3[C@H]2N2C(=O)N(c3cccc(Cl)c3)C(=O)[C@@]12C | 23.7 µM (inactive)
20 | Cc1ccc(S(=O)(=O)c2nnn3c2nc(N2CCC(C(N)=O)CC2)c2ccccc23)cc1C | 11.4 µM (active)

Tested on: not listed separately
Test: cells
Assay type: functional, cell-based
Remark: another data set of the same source

Row | Structure (SMILES) | EC50
21 | Cc1cccc(N=C(S)N2CCC(N(C)CC3CCCO3)CC2)c1 (stereo unspecified) | > 350 µM (not active)
22 | Cc1onc(-c2c(Cl)cccc2Cl)c1C(=O)N=C(N)N1CCCC1 | > 350 µM (not active)
23 | CN1CCN(Cc2nc3ccccc3c(=O)n2Cc2nc(-c3ccccc3F)cs2)CC1 | 45.4 µM (active)
24 | CCN(CC)c1ccc(NC(=O)Cn2nnc(-c3cccc(OC)c3OC)n2)c(C)c1 | > 350 µM (not active)
25 | O=C(c1cc2ccccc2o1)N1CCN(Cc2ccc3c(c2)OCO3)CC1 | > 350 µM (not active)
26 | C=CCNC(=O)/C(=C/c1cn(-c2ccccc2)nc1-c1cccc([N+](=O)[O-])c1)NC(=O)c1ccccc1 | > 350 µM (not active)
27 | CCCc1nc2ccccc2c(=O)n1/N=C/c1ccccc1O | > 350 µM (not active)
28 | COc1ccc(C/C(C)=N/NS(=O)(=O)c2ccc(Br)cc2)cc1 | > 350 µM (not active)

Target: T1, Fatty acid synthase
Test: FAS thioesterase domain inhibitors, dose response, biochemical, kinetic fluorescence intensity (AID 624326);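 note: rate of fluorescence rise from hydrolysis of a fluorogenic O-methyl fluorescein ester substrate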
Assay type: functional

Row | IC50 | Structure (SMILES)
29 | 16.5 µM (active) | COc1ccc([N+](=O)[O-])cc1NC(=O)C1(c2ccccc2)CCOCC1
30 | 5.32 µM (active) | COc1ccc(-c2cc(=O)oc3c(C)c(OCc4nn[nH]n4)ccc23)cc1
31 | 11.9 µM (active) | CC(=O)N1N=C(c2cccc([N+](=O)[O-])c2)OC1c1cccc(Br)c1 (stereo unspecified)
32 | 11.7 µM (active) | COC(=O)c1cc(C(=O)NCc2ccc3c(c2)OCO3)cc([N+](=O)[O-])c1
33 | 13.2 µM (active) | CCn1cc([N+](=O)[O-])c(C(=O)N2N=C(c3ccccc3)CC2c2ccc([N+](=O)[O-])cc2)n1 (stereo unspecified)
34 | 5.23 µM (active) | CC1CCN(C(=O)COC(=O)c2cc([N+](=O)[O-])ccc2N2CCOCC2)CC1
35 | 6.71 µM (active) | COc1ccc(CN(C)C(=O)COC(=O)c2cc([N+](=O)[O-])ccc2N2CCCC2)c(OC)c1OC

More lines, now with the values behind:

Row | Structure (SMILES) | IC50
36 | CC(NC(=O)C(C(=O)c1cccc([N+](=O)[O-])c1)n1cc(Cl)ccc1=O)c1ccccc1 (stereo unspecified) | 7.89 µM (active)
37 | Cc1cc(=O)oc2cc(OCC(=O)N3CCN(C(C)c4ccccc4)CC3)c(Cl)cc12 (stereo unspecified) | 8.55 µM (active)
38 | CN(c1ccccc1)S(=O)(=O)c1cccc(NC(=O)CCNC(=O)c2ccc([N+](=O)[O-])cc2)c1 | 9.59 µM (active)
39 | CCOC(=O)[C@@H]1[C@H]2COc3cc(OC)ccc3[C@H]2N2C(=O)N(c3cccc(Cl)c3)C(=O)[C@@]12C | 13.6 µM (active)
40 | Cc1ccc(S(=O)(=O)c2nnn3c2nc(N2CCC(C(N)=O)CC2)c2ccccc23)cc1C | 8.84 µM (active)

Target: T2, Leucine aminopeptidase (Plasmodium falciparum 3D7, UniProt Q8IL11)
T2 sequence (Q8IL11 whole entry): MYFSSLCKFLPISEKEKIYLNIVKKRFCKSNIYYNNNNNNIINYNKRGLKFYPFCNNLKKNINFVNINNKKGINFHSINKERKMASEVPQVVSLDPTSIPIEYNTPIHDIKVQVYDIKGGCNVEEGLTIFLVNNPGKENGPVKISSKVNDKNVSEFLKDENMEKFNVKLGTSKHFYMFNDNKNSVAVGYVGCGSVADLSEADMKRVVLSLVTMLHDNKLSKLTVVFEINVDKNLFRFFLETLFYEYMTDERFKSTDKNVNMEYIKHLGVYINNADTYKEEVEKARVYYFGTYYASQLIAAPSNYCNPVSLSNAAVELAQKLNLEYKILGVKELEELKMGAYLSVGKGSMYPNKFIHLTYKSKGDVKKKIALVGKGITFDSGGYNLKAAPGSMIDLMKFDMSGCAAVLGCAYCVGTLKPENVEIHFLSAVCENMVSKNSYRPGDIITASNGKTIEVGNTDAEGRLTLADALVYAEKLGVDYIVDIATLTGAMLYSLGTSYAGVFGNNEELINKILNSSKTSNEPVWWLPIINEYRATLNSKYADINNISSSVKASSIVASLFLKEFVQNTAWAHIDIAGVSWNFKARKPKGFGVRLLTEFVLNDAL
Test: P. falciparum M17LAP inhibitors, primary screen, biochemical, fluorogenic H-Leu-NHMec substrate, 1536-well (AID 1619)
Assay type: functional

Row | Structure (SMILES) | IC50
41 | CCN(CC)c1ccc(NC(=O)Cn2nnc(-c3cccc(OC)c3OC)n2)c(C)c1 | < 1 µM (active)

— ChEMBL document CHEMBL1201862, “PubChem BioAssay data set” (2004)
